Source: patent US11221321B2, “Liquid chromatographic method for the simultaneous analysis of antihypertensive and antilipidemic agents and interactions thereof” (Imam Abdulrahman Bin Faisal University, priority 2019, dated 2022)

Experiment: In vitro drug-drug interaction studies of sartan and statin in dissolution media by UV/Visible spectrophotometry
Format: physicochemical
Settings: SGM and pH 4, 7.4, 9, 37° C., 2 hours; for interaction of losartan and atorvastatin (FIG. 7): LOS + ATR added together at 0 min; for interaction of valsartan and atorvastatin (FIG. 10): VAL + ATR added together at 0 min
Procedure: Interaction studies by UV/Visible spectrophotometry. In vitro interaction studies of antihypertensive drugs and antilipidemic agents were studied individually by using different kinds of dissolution media: SGM and media at pH 4, 7.4 and 9 as described in the experimental section.
In each set of experiments losartan or valsartan was initially added at 0 min to 500 mL dissolution medium SGM or media at pH 4, 7.4 and 9 already maintained at 37° C. The second drug, statin (ATOR, PRA or SIM) was added at the same time at zero mins. 5 mL samples were collected at regular intervals for 2 hours. The drug contents (losartan in presence of respective interacting drug, and valsartan in presence of respective interacting drug) were quantified spectrophotometrically at their respective λmax by employing simultaneous equations; FIGS. 7-12.
In FIG. 7, the drug contents (losartan in presence of respective interacting drug) were quantified spectrophotometrically at their respective λmax by employing simultaneous equations, that is, by using the molar absorptive value of the drug at a particular wavelength and a particular pH.
As the spectra of the two interacting drugs fused with each other, simultaneous methods were developed to determine losartan/valsartan and drugs of interacting classes along with each other. This technique enables one to quantitate the content of the two drugs co-existing in the same medium, without needing to separate them. To achieve this, molar absorptivity values of both losartan and the respective interacting drug were calculated at λmax of their own and at the λmax of each other using their calibration curves standards in all four pH medium.

SMILES: CC(C)c1c(C(=O)Nc2ccccc2)c(-c2ccccc2)c(-c2ccc(F)cc2)n1CC[C@@H](O)C[C@@H](O)CC(=O)O [ATR, Atorvastatin]
- interaction of losartan and atorvastatin (FIG. 7): have undergone interaction
- interaction of valsartan and atorvastatin (FIG. 10): may interact in the digestive tract

SMILES: CCCCC(=O)N(Cc1ccc(-c2ccccc2-c2nnn[nH]2)cc1)[C@H](C(=O)O)C(C)C [VAL, Valsartan]
- interaction of valsartan and atorvastatin (FIG. 10): may interact in the digestive tract
- interaction of valsartan and pravastatin (FIG. 11) (VAL + PRA added together at 0 min): may interact in the digestive tract
- interaction of valsartan and simvastatin (FIG. 12) (VAL + SIM added together at 0 min): may interact in the digestive tract

SMILES: CCCCc1nc(Cl)c(CO)n1Cc1ccc(-c2ccccc2-c2nn[nH]n2)cc1 [LOS, Losartan]
- interaction of losartan and atorvastatin (FIG. 7): have undergone interaction
- interaction of losartan and pravastatin (FIG. 8) (LOS + PRA added together at 0 min): may interact in the digestive tract
- interaction of losartan and simvastatin (FIG. 9) (LOS + SIM added together at 0 min): NOT available in their original form
